The source of these data is PubChem BioAssay (NCI).

Test systems include OVCAR-4 ovarian; MDA-MB-435; OVCAR-5 ovarian; PC-3 prostate; HCT-15 colon; K-562 leukemia; COLO 205 colon; SF-268 CNS; SK-OV-3 ovarian; SNB-19 CNS.
What all share (test): inhibition of tumour cell growth, NCI panel, 48 h

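Following 48 hours of exposure in 96-well plates, responses at five concentrations were used to interpolate endpoints linearly. GI50 marks 50% less growth. The concentration for full growth arrest is given as TGI.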

With `COc1cc2nccc(Oc3ccc(NC(=O)c4cn(C(C)C)c(=O)n(-c5ccc(F)cc5)c4=O)cc3F)c2cc1OC`, the GI50 in the experiment on OVCAR-4 ovarian was above 20.8 µM; in the experiment on MDA-MB-435 it was above 100 µM; in the experiment on OVCAR-5 ovarian, 5.6 µM; in the experiment with PC-3 prostate, 6.28 µM; with HCT-15 colon it was above 100 µM; in the experiment with K-562 leukemia, 0.0442 µM. Further, the GI50 with COLO 205 colon is above 100 µM; in the experiment on SF-268 CNS, 4.51 µM; in the experiment with SK-OV-3 ovarian, above 100 µM; with SNB-19 CNS it was above 100 µM. In addition, the TGI in the experiment on OVCAR-4 ovarian, in the experiment on MDA-MB-435, with OVCAR-5 ovarian, in the experiment on PC-3 prostate, in the experiment on HCT-15 colon and in the experiment with K-562 leukemia was above 100 µM in each case. Moreover, the TGI in the experiment on COLO 205 colon was above 100 µM; with SF-268 CNS, above 51.6 µM; with SK-OV-3 ovarian, above 100 µM; in the experiment on SNB-19 CNS it was above 100 µM.
In the case of `NC(Cc1ccccc1)c1nccs1` (centres undefined), the TGI in the experiment with OVCAR-4 ovarian, in the experiment with MDA-MB-435, with OVCAR-5 ovarian, in the experiment with PC-3 prostate, with HCT-15 colon and in the experiment on K-562 leukemia was above 100 µM each time. Moreover, the TGI in the experiment on COLO 205 colon, in the experiment with SF-268 CNS, with SK-OV-3 ovarian and in the experiment on SNB-19 CNS was above 100 µM throughout.
As to `COc1ccc2[nH]c(C(=O)OCc3ccc4c(Cl)cc(Cl)c(O)c4n3)cc2c1`, the GI50 is 1.49 µM in the experiment with OVCAR-4 ovarian; 1.13 µM in the experiment on MDA-MB-435; 1.49 µM with OVCAR-5 ovarian; 0.99 µM with PC-3 prostate; 0.698 µM in the experiment with HCT-15 colon; 0.355 µM with K-562 leukemia. The GI50 with COLO 205 colon was 1.13 µM; in the experiment with SF-268 CNS, 1.42 µM; with SK-OV-3 ovarian it was 4.06 µM; with SNB-19 CNS it was 2.18 µM. The TGI in the experiment on OVCAR-4 ovarian is 2.92 µM; in the experiment with MDA-MB-435, 2.45 µM; in the experiment with OVCAR-5 ovarian, 2.9 µM; in the experiment on PC-3 prostate, 2.57 µM; with HCT-15 colon, 2.44 µM; with K-562 leukemia it was 3.05 µM. In addition, the TGI in the experiment with COLO 205 colon is 2.56 µM; in the experiment with SF-268 CNS, 2.77 µM; in the experiment with SK-OV-3 ovarian it was 17.7 µM; in the experiment on SNB-19 CNS, 5.69 µM.
For the molecule `O=P(O)(O)OCC1OC(n2cnc3c(NCc4ccccc4)ncnc32)C(O)C1O` (centres undefined), the GI50 in the experiment with OVCAR-4 ovarian was 0.642 µM; in the experiment with MDA-MB-435 it was 3.23 µM; in the experiment with OVCAR-5 ovarian, 3.11 µM; with PC-3 prostate, 1.2 µM; in the experiment with HCT-15 colon it was 1.19 µM; in the experiment on K-562 leukemia, 2.52 µM. The GI50 in the experiment with COLO 205 colon is 2.37 µM; in the experiment with SF-268 CNS, 2.03 µM; with SK-OV-3 ovarian, 2.73 µM; in the experiment with SNB-19 CNS it was 4.18 µM. The TGI in the experiment with OVCAR-4 ovarian was 33.1 µM; in the experiment on MDA-MB-435, above 100 µM; in the experiment on OVCAR-5 ovarian, above 100 µM; in the experiment on PC-3 prostate, above 36.2 µM; in the experiment with HCT-15 colon, 16 µM; with K-562 leukemia, above 100 µM. Besides, the TGI in the experiment with COLO 205 colon was 8.53 µM; with SF-268 CNS, above 100 µM; in the experiment on SK-OV-3 ovarian it was 11.1 µM; in the experiment with SNB-19 CNS, above 100 µM.
`C/C=C(\C)C(=O)OC1/C=C(\C)CC/C=C(\C)CC2OC(=O)C(C)(OC(C)=O)C12` (centres undefined): the TGI with OVCAR-4 ovarian, with MDA-MB-435, with OVCAR-5 ovarian, in the experiment with PC-3 prostate, in the experiment on HCT-15 colon and with K-562 leukemia was above 100 µM each time. Moreover, the TGI in the experiment on COLO 205 colon, in the experiment with SF-268 CNS, in the experiment with SK-OV-3 ovarian and with SNB-19 CNS was above 100 µM in each case.
`CC/C(=C/c1ccc(OC)cc1OC)[N+](=O)[O-]`: the GI50 is 4.66 µM with OVCAR-4 ovarian; 1.97 µM in the experiment with MDA-MB-435; 7.59 µM in the experiment with OVCAR-5 ovarian; 3.84 µM with PC-3 prostate; 1.87 µM in the experiment on HCT-15 colon; 2.91 µM in the experiment with K-562 leukemia. For the same molecule, the GI50 in the experiment with COLO 205 colon is 2.04 µM; with SF-268 CNS it was 3.28 µM; in the experiment with SK-OV-3 ovarian, 16.7 µM; in the experiment on SNB-19 CNS it was 4.35 µM. The TGI in the experiment with OVCAR-4 ovarian is 17.3 µM; with MDA-MB-435, 5.7 µM; in the experiment on OVCAR-5 ovarian it was 22.2 µM; in the experiment on PC-3 prostate it was 13.1 µM; with HCT-15 colon, 4.54 µM; in the experiment on K-562 leukemia, 61.5 µM. For the same molecule, the TGI in the experiment with COLO 205 colon turned out to be 4.24 µM; in the experiment with SF-268 CNS it was 12.7 µM; in the experiment on SK-OV-3 ovarian it was 30.4 µM; with SNB-19 CNS it was 16.6 µM.
In the case of `O=c1[nH]c(=O)n(C2CC(O)C(CO)O2)cc1C(F)(F)F` (centres undefined), the GI50 is above 100 µM in the experiment with OVCAR-4 ovarian; 5.31 µM in the experiment on MDA-MB-435; above 100 µM in the experiment with OVCAR-5 ovarian; above 100 µM in the experiment with PC-3 prostate; 46 µM in the experiment on HCT-15 colon; 25 µM in the experiment on COLO 205 colon. The GI50 with SF-268 CNS is 3.14 µM; in the experiment on SK-OV-3 ovarian, 10.1 µM; in the experiment on SNB-19 CNS, 2.96 µM. Moreover, the TGI in the experiment on OVCAR-4 ovarian, with MDA-MB-435, in the experiment with OVCAR-5 ovarian, with PC-3 prostate, in the experiment on HCT-15 colon and in the experiment with K-562 leukemia was above 100 µM each time. Besides, the TGI in the experiment on COLO 205 colon, in the experiment with SF-268 CNS, in the experiment on SK-OV-3 ovarian and with SNB-19 CNS was above 100 µM each time.
Regarding `C[C@]12C[C@H](O)[C@H]3[C@@H](CCC4=CC(=O)CC[C@@]43C)[C@@H]1CC[C@@H]2c1csc(-c2ccccc2)n1`, the TGI with OVCAR-4 ovarian is above 73.8 µM; with MDA-MB-435, above 100 µM; in the experiment with OVCAR-5 ovarian it was above 100 µM; in the experiment with PC-3 prostate it was 20.3 µM; in the experiment with HCT-15 colon it was above 100 µM; in the experiment on K-562 leukemia, above 100 µM. For the same molecule, the TGI in the experiment with COLO 205 colon, in the experiment on SF-268 CNS, in the experiment on SK-OV-3 ovarian and in the experiment on SNB-19 CNS was above 100 µM in each case.
As for `N#CC1=C(N)NC(=O)NC12Nc1ccccc1N2`, the GI50 in the experiment with OVCAR-4 ovarian, in the experiment on MDA-MB-435, in the experiment with OVCAR-5 ovarian, in the experiment on PC-3 prostate, with HCT-15 colon and in the experiment with K-562 leukemia was above 100 µM in each case. Also, the GI50 with COLO 205 colon, in the experiment on SF-268 CNS, in the experiment on SK-OV-3 ovarian and in the experiment with SNB-19 CNS was above 100 µM each time. In addition, the TGI in the experiment on OVCAR-4 ovarian, in the experiment with MDA-MB-435, in the experiment with OVCAR-5 ovarian, in the experiment on PC-3 prostate, in the experiment with HCT-15 colon and in the experiment on K-562 leukemia was above 100 µM in each case. Besides, the TGI with COLO 205 colon, in the experiment with SF-268 CNS, with SK-OV-3 ovarian and in the experiment on SNB-19 CNS was above 100 µM in each case.
